As usually defined, the pIC50 is −log10 of the IC50, conventionally taken in molar units.

This is an account of results in patent US10155754B2, “Substituted 2-imino-1,3-thiazolidin-4-ones as N-arachidonoylethanolamine cellular uptake inhibitors” (UNIVERSITAT BERN, priority 2014, dated 2018).

pIC50: −log10 of the molar value.

The first experiment relates to AEA cellular uptake (U937 cells). The experiment in a line: [3H]-AEA cellular uptake inhibition in U937 cells. It counts as cell-based. The following applies: Homo sapiens, U-937, U937 cells, final 100 nM AEA with 0.5 nM [3H]-AEA, 15 min at 37° C.; read-out: AEA uptake IC50. The protocol: [^3H]-AEA Cellular Uptake
Screening for AEA cellular uptake inhibition was performed in a semi-automated procedure: Pipetting and washing steps were performed by a Biomek3000 laboratory workstation. First, required amounts of U937 cells were centrifuged at 100×g for 5 min and resuspended in RPMI (37° C.) to a final concentration of 2×10^6 cells/mL. Then, 250 μL of cell suspension (0.5×10^6 cells per sample) were transferred into AquaSil™ silanized glass vials (Chromacol 1.1-MTV) in 96-well format. After addition of 5 μL vehicle (DMSO) or compounds the cells were incubated at 37° C. for 15 min. As positive controls OMDM-2 and UCM707 were used at 10 μM in each run. The ETI-T compounds were measured at up to 7 concentrations in triplicates from 100 pM-100 μM. After pre-incubation, a mixture of 0.5 nM [ethanolamine-1-^3H]-AEA, (60 Ci/mmol) and 99.5 nM of cold AEA (final 100 nM) was added and samples were incubated at 37° C. for another 15 min. The reaction was stopped by rapid filtration over UniFilter-96 GF/C filters (PerkinElmer) pre-soaked with PBS 0.25% BSA. Cells were washed three times with 100 μL ice-cold PBS buffer containing 1% fatty acid free BSA. After drying, 45 μL MicroScint 20 scintillation cocktail (PerkinElmer, Waltham, Mass., US) was added to the wells and the plate was sealed. Radioactivity was measured by liquid scintillation counting on a PerkinElmer Wallac Trilux MicroBeta 1450 during 2 min. Non-specific binding of [^3H]AEA (100 nM) to the glass vials was never higher than 10%. IC50 values were calculated by GraphPad® by non-linear regression using the built-in log(inhibitor) vs. response-variable slope (four parameters) function.
As for `COCc1cccc(/C=C2\S/C(=N\Cc3ccc(C(C)(C)C)cc3)N(c3ccccc3)C2=O)c1` [15_R_N, (2Z,5Z)-5-(3-(methoxymethyl)benzylidene)-2-(4-tert-butylbenzylimino)-3-phenylthiazolidin-4-one], the pIC50 is below 5.00.

Regarding `COc1ccc(N2C(=O)/C(=C/c3ccc(CO)cc3)S/C2=N\c2ccccc2)cc1` [22_N_F, (2Z,5Z)-5-(4-(hydroxymethyl)benzylidene)-3-(4-methoxyphenyl)-2-(phenylimino)thiazolidin-4-one], the pIC50 is below 5.00.

Turning to `O=C1/C(=C/c2ccc3c(c2)OCCO3)S/C(=N\c2ccc(F)cc2)N1c1ccccc1` [24_B_N, (2Z,5Z)-2-(4-fluorophenylimino)-5-((2,3-dihydrobenzo[b][1,4]dioxin-6-yl)methylene)-3-phenylthiazolidin-4-one], the pIC50 was 6.38.

Take `Cc1ccc(/N=C2\S/C(=C\c3ccc4c(c3)OCCO4)C(=O)N2CC(C)C)cc1` [24_A_X, (2Z,5Z)-2-(p-tolylimino)-5-((2,3-dihydrobenzo[b][1,4]dioxin-6-yl)methylene)-3-isobutylthiazolidin-4-one]: the pIC50 is 6.14.

With `O=C1/C(=C/c2ccccc2)S/C(=N\Cc2ccccc2Cl)N1c1ccccc1` [23_T_N, (2Z,5Z)-2-(2-chlorobenzylimino)-5-benzylidene-3-phenylthiazolidin-4-one], the pIC50 was 6.25.

With `COc1ccc(N2C(=O)/C(=C/c3ccc(CO)cc3)S/C2=N\Cc2ccccc2)cc1` [22_C_F, (2Z,5Z)-5-(4-(hydroxymethyl)benzylidene)-2-(benzylimino)-3-(4-methoxyphenyl)thiazolidin-4-one], the pIC50 is 6.23.

Consider `CCCCN1C(=O)/C(=C/c2ccccc2)S/C1=N\Cc1ccccc1` [23_C_G, (2Z,5Z)-5-benzylidene-2-(benzylimino)-3-butylthiazolidin-4-one], for which the pIC50 is 6.12.

Take `Cc1ccc(/N=C2\S/C(=C\c3ccc4[nH]cnc4c3)C(=O)N2c2ccccc2)nc1` [04_D_N, (2Z,5Z)-5-((1H-benzo[d]imidazol-5-yl)methylene)-2-(5-methylpyridin-2-ylimino)-3-phenylthiazolidin-4-one]: the pIC50 was 5.80.

Consider `CC(C)CN1C(=O)/C(=C/c2ccc3ncsc3c2)S/C1=N\c1ccc(F)cc1` [32_B_X, (2Z,5Z)-2-(4-fluorophenylimino)-5-((benzo[d]thiazol-6-yl)methylene)-3-isobutylthiazolidin-4-one], for which the negative logarithm of the IC50 (pIC50) is 6.00.

Take `O=C1/C(=C/c2ccc3[nH]cnc3c2)S/C(=N\Cc2ccccc2)N1CCCc1ccccc1` [04_C_K, (2Z,5Z)-5-((1H-benzo[d]imidazol-5-yl)methylene)-2-(benzylimino)-3-(3-phenylpropyl)thiazolidin-4-one]: the pIC50 was 5.94.

On to `O=C1/C(=C/c2ccccc2)S/C(=N\c2ccccc2)N1CCCc1ccccc1` [23_N_K, (2Z,5Z)-5-benzylidene-2-(phenylimino)-3-(3-phenylpropyl)thiazolidin-4-one], for which the pIC50 was 5.95.

In the case of `O=C1/C(=C/c2ccc(CO)cc2)S/C(=N\Cc2ccccc2Cl)N1c1ccccc1` [22_T_N, (2Z,5Z)-2-(2-chlorobenzylimino)-5-(4-(hydroxymethyl)benzylidene)-3-phenylthiazolidin-4-one], the negative-log IC50 (pIC50) is below 5.00.

For the compound `O=C1/C(=C/c2ccc3[nH]cnc3c2)S/C(=N\c2ccccc2)N1CCCc1ccccc1` [04_N_K, (2Z,5Z)-5-((1H-benzo[d]imidazol-5-yl)methylene)-2-(phenylimino)-3-(3-phenylpropyl)thiazolidin-4-one], the pIC50 is 6.14.

With `COc1ccc(C/N=C2\S/C(=C\c3ccc(CO)cc3)C(=O)N2c2ccccc2)cc1` [22_Q_N, (2Z,5Z)-5-(4-(hydroxymethyl)benzylidene)-2-(4-methoxybenzylimino)-3-phenylthiazolidin-4-one], the pIC50 was 6.15.

As for `O=C1/C(=C/c2ccc3c(c2)OCCO3)S/C(=N\c2ccc(F)cc2)N1c1ccc(Cl)cc1` [24_B_L, (2Z,5Z)-2-(4-fluorophenylimino)-3-(4-chlorophenyl)-5-((2,3-dihydrobenzo[b][1,4]dioxin-6-yl)methylene)thiazolidin-4-one], the pIC50 is 6.18.

As for `O=C1/C(=C/c2ccc3[nH]ccc3c2)S/C(=N\c2ccccc2)N1c1ccccc1` [compound 03, (2Z,5Z)-5-((1H-indol-5-yl)methylene)-3-phenyl-2-(phenylimino)thiazolidin-4-one], the pIC50 was 6.14.

In the case of `COc1ccc(/N=C2\S/C(=C\c3ccc4[nH]ccc4c3)C(=O)N2c2ccccc2)cc1` [03_F_N, (2Z,5Z)-5-((1H-indol-5-yl)methylene)-2-(4-methoxyphenylimino)-3-phenylthiazolidin-4-one], the pIC50 was 5.97.

With `CCCCCCCCCCCCN1C(=O)/C(=C/c2ccc(CO)cc2)S/C1=N\c1ccc(C)cc1` [04_A_V, (2Z,5Z)-5-(4-(hydroxymethyl)benzylidene)-2-(p-tolylimino)-3-dodecylthiazolidin-4-one], the pIC50 is below 5.00.

For `O=C1/C(=C/c2ccc3[nH]ccc3c2)S/C(=N\CCc2ccccc2)N1c1ccccc1` [03_U_N, (2Z,5Z)-5-((1H-indol-5-yl)methylene)-2-(phenethylimino)-3-phenylthiazolidin-4-one], the pIC50 is 6.29.

With `O=C1/C(=C/c2ccc(CO)cc2)S/C(=N\c2ccccc2)N1Cc1ccccc1` [22_N_C, (2Z,5Z)-5-(4-(hydroxymethyl)benzylidene)-3-benzyl-2-(phenylimino)thiazolidin-4-one], the pIC50 is 6.18.

The same experiment, now with this note: Homo sapiens, U-937, U937 cells, final 100 nM AEA with 0.5 nM [3H]-AEA, 15 min at 37° C.; read-out: AEA uptake inhibition IC50.
On to `COc1ccc(/N=C2\S/C(=C\c3ccc(CO)cc3)C(=O)N2c2ccccc2)cc1` [drawing 140], for which the pIC50 was 6.87.

For the compound `COCc1cccc(/C=C2\S/C(=N\c3ccccc3)N(c3ccccc3)C2=O)c1` [drawing 117], the pIC50 was 6.00.

As to `O=C1/C(=C/c2ccc3c(c2)OCCO3)S/C(=N\Cc2ccccc2)N1c1ccccc1` [drawing 133], the pIC50 is 6.77.

Turning to `O=C1/C(=C/c2ccc3occc3c2)S/C(=N\c2ccccc2)N1c1ccccc1`, the pIC50 is 5.49.

For `O=C1/C(=C/c2ccc(CO)cc2)S/C(=N\Cc2ccccc2)N1c1ccccc1` [drawing 142], the pIC50 is 6.59.

On to `COc1cc(/C=C2\S/C(=N\c3ccccc3)N(c3ccccc3)C2=O)ccn1`, for which the pIC50 is 5.26.

In the case of `O=C1/C(=C/c2ccc3scnc3c2)S/C(=N\c2ccccc2)N1c1ccccc1`, the pIC50 was 4.93.

Consider `Cc1ccc(/N=C2\S/C(=C\c3ccccc3)C(=O)N2c2ccccc2)cc1`, for which the pIC50 was 5.49.

`C/N=C1\S/C(=C\c2ccc3[nH]ccc3c2)C(=O)N1c1ccccc1`: the pIC50 is 4.78.

In the case of `Cn1ncc2cc(/C=C3\S/C(=N\c4ccccc4)N(c4ccccc4)C3=O)ccc21` [drawing 126], the pIC50 was 6.29.

Regarding `O=C1/C(=C/c2ccc3ncsc3c2)S/C(=N\c2ccccc2)N1c1ccccc1` [drawing 129], the pIC50 is 6.54.

Turning to `Cc1ccc(/N=C2\S/C(=C\c3ccc(CO)cc3)C(=O)N2c2ccccc2)cc1` [drawing 141], the pIC50 was 6.95.

`O=C1/C(=C/c2ccc(CO)cc2)S/C(=N\c2ccccc2)N1c1ccccc1` [drawing 121]: the pIC50 was 6.14.

Regarding `O=C1/C(=C/c2ccccc2)S/C(=N\c2ccccc2)N1c1ccccc1`, the pIC50 was 5.56.

Consider `CCCCN1C(=O)/C(=C/c2ccc3[nH]ccc3c2)S/C1=N\c1ccccc1`, for which the pIC50 is 6.17.

Regarding `CCCCN1C(=O)/C(=C/c2ccc(OC)cc2)S/C1=N\c1ccccc1`, the pIC50 is 5.64.

In the case of `COc1ccc(/N=C2\S/C(=C\c3ccc4[nH]ccc4c3)C(=O)N2c2ccccc2)cc1` [drawing 150], the pIC50 is 5.97.

In the case of `O=C1/C(=C/c2ccccc2)S/C(=N\c2ccccc2)N1Cc1ccco1`, the pIC50 was 5.74.

`O=C1/C(=C/c2ccc3[nH]ccc3c2)S/C(=N\c2ccccc2)N1c1ccccc1` [drawing 108]: the pIC50 was 6.14.

The same experiment, now with this note: U937 cells, final 100 nM AEA with 0.5 nM [3H]-AEA, 15 min at 37° C.; read-out: AEA uptake IC50.
As for `O=C1/C(=C/c2ccc(CO)cc2)S/C(=N\c2ccccc2)N1CCCc1ccccc1` [22_N_K, (2Z,5Z)-5-(4-(hydroxymethyl)benzylidene)-2-(phenylimino)-3-(3-phenylpropyl)thiazolidin-4-], the pIC50 is 6.06.

For `O=C1/C(=C/c2ccc(CO)cc2)S/C(=N\Cc2ccccc2)N1CCCc1ccccc1` [22_C_K, (2Z,5Z)-5-(4-(hydroxymethyl)benzylidene)-2-(benzylimino)-3-(3-phenylpropyl)thiazolidin-4-], the pIC50 was 5.84.

Consider `CCCCCCCCCCCCN1C(=O)/C(=C/c2ccc(CO)cc2)S/C1=N\c1ccc(F)cc1` [23_A_V, (2Z,5Z)-5-(4-(hydroxymethyl)benzylidene)-2-(4-fluorophenylimino)-3-dodecylthiazolidin-4-one], for which the pIC50 was 4.98.
